# Results taken from patent publication US8637521B2, “Substituted piperazin-2,5-diones and their use as multifunctional bioactive compounds” (priority 2006, dated 2014).
# pEC50: −log10 of the molar value. Like-named read-outs stand apart in the source and are kept apart here. Square brackets hold non-standard residues; d marks the D form. Peptide text beside a SMILES is read from it.
# Key:
# BALB/c male mice = assay: Antinociceptive activity, tail flick test with heat radiation, intragastral or intraperitoneal; format: in vivo
# Description: For estimation of oral activity of novel cyclopeptides of the present invention, the “tail flick” test was used. The results were compared with those obtained using intraperitoneal administration.
# Antinociceptive activity of the peptides of the present invention was assessed in experiments on BALB/c male mice weighing 22 to 24 g. The peptides were dissolved in saline and administered intraperitoneally or intragastrally.
# The “Tail flick” test (D'Amour, F. E. et al. “A Method for Determining Loss of Pain Sensation”, J. Pharmacol. Exp. Ther., Vol. 72, Pages 74 to 79, 1941) was performed on an analgesimeter type 812, Hugo Sachs Electronick KG. Antinociceptive activity was defined as the absence of tail flick response on stimulation with a focused bundle of heat radiation with 6 sec at baseline response of 2.0-3.0 seconds.
# Statistical treatment of the results was carried out by the Student's paired t-test.
# [1] = biological target: μ-receptor (isolated guinea pig ileum, GPI) (Cavia porcellus, UniProt P97266); assay: Peripheral opioid activity: inhibition of electrically-induced contractions of isolated guinea pig ileum (GPI); conditions: for Value of pD2 (M ± m): negative logarithm of EC50; for pEC50: concentration reducing contraction amplitude by 50%, 5 replications
# Description: The segment of GPI about 1 cm long was placed into a 10-ml organ bath containing Krebs solution at 34° C. […] Resting tension of the organ was 1 g. The segment of GPI was stimulated by single pulses duration 1 ms with 0.1 Hz at 80 V. The solution with isolated organs was constantly aerated. The contractions were recorded in an isometrical mode by a sensor K 30 (Hugo Sachs Elektronic KG) with paper register Rikadenki-series (Japan).
# The substances tested were dissolved in distilled water and added cumulatively to the organ bath at a volume of 5 to 30 mcl. Each subsequent substance was added after the isolated organs were washed 3 or 4 times for 12-15 min. On the basis of the data obtained, dose-effects curves were plotted and the activity of substances was expressed by IC50 or pD2. The pD2 index was equal to a negative decimal logarithm of the substance concentration causing a 50% of the maximal effect.
# New dermorphin analogues were tested in the standard model of Guinea pig ileum binding test.
# For confirmation of opioid activity, the specific antagonist naloxson was used in concentration of 10^−5M. Each molecule was tested in 5 independent replications and relative activity was calculated as negative logarithm of EC50 (pD2).
# mice F1(CBAxC57D16) = assay: Analgesic activity, tail flick test, water 48° C., intraperitoneal; format: in vivo; conditions: Table 10; for Initial sensitivity level: before injection
# Description: Two hundred and twenty mice F1(CBAxC57D16) first generation hybrids were used for testing of analgesic activity using the “tail flick” test. The water temperature was at 48° C. The maximal effect was for the period of 30 seconds. All peptides were injected intraperitoneally in the doses of 5, 10 or 20 mg/kg. Analgesic effect was estimated in the time interval of 15 to 120 min after peptide injection. Student's t-criterion was used for statistical calculations of the results. Statistical significance were at the level of p≦0.05.
# [2] = Table 11, oral 50 mg/kg group, before administration
# [3] = Table 11, oral 50 mg/kg, 15 min, cut-off 6 sec
# [4] = Table 12, intraperitoneal 10 mg/kg group, before injection
# [5] = Table 12, intraperitoneal 10 mg/kg, 15 min, cut-off 6 sec
# Sequence of μ-receptor (isolated guinea pig ileum, GPI) (P97266 whole entry): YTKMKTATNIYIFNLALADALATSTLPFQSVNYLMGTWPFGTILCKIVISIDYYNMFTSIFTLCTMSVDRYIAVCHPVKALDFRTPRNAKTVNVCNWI
Compound,"Initial sensitivity level, mean (BALB/c male mice; [2])","Initial sensitivity level, mean (BALB/c male mice; [4])",Effect duration (BALB/c male mice; [5]),Value of pD2 (M ± m) [1],pEC50 ([1]; read-out: Median EC50 in M),Initial sensitivity level (mice F1(CBAxC57D16); 10 mg/kg group),"Effect duration (mice F1(CBAxC57D16); 10 mg/kg i.p., 15 min)","Effect duration (mice F1(CBAxC57D16); 10 mg/kg i.p., 30 min)","Effect duration (mice F1(CBAxC57D16); 10 mg/kg i.p., 45 min)","Effect duration (mice F1(CBAxC57D16); 10 mg/kg i.p., 60 min)","Effect duration (mice F1(CBAxC57D16); 10 mg/kg i.p., 90 min)","Effect duration (mice F1(CBAxC57D16); 10 mg/kg i.p., 120 min)",also measured
"CNC(=O)[C@H](CO)NC(=O)[C@@H]1CCCN1C(=O)[C@H](Cc1ccc(O)cc1)NC(=O)[C@@H](C)NC(=O)[C@H](Cc1ccccc1)NC(=O)[C@@H](C)NC(=O)[C@@H](N)Cc1ccc(O)cc1 [Compound 50, H-Tyr-D-Ala-Phe-D-Ala-Tyr-Pro-Ser-NH-CH3, reference compound] (H-Y[dA]F[dA]YPS-NHMe)",2.6 ± 0.1 s,2.0 ± 0.1 s,3.6 ± 0.7 s,7.95 ± 0.07,8.02,2.9 ± 0.2 s,5.9 ± 0.7 s,10.7 ± 0.8 s,12.2 ± 2.6 s,7.2 ± 1.2 s,6.9 ± 1.4 s,3.7 ± 0.4 s,"Effect duration (BALB/c male mice; [3]): 3.3 ± 0.6 s; Effect duration (BALB/c male mice; Table 11, oral 50 mg/kg, 30 min): 2.3 ± 0.1 s; Effect duration (BALB/c male mice; Table 11, oral 50 mg/kg, 90 min): 4.3 ± 0.6 s; Initial sensitivity level (mice F1(CBAxC57D16); 5 mg/kg group): 3.0 ± 0.1 s; Effect duration (mice F1(CBAxC57D16); 5 mg/kg i.p., 15 min after injection): 9.0 ± 1.7 s; Effect duration (mice F1(CBAxC57D16); 5 mg/kg i.p., 30 min): 10.3 ± 2.6 s; Effect duration (mice F1(CBAxC57D16); 5 mg/kg i.p., 45 min): 14.3 ± 3.7 s; Effect duration (mice F1(CBAxC57D16); 5 mg/kg i.p., 60 min): 10.8 ± 1.9 s; Effect duration (mice F1(CBAxC57D16); 5 mg/kg i.p., 90 min): 6.4 ± 1.5 s; Effect duration (mice F1(CBAxC57D16); 5 mg/kg i.p., 120 min): 3.5 ± 0.2 s"
"C[C@@H](NC(=O)[C@H](Cc1ccc(O)cc1)NC(=O)[C@@H](N)CCCNC(=N)N)C(=O)N[C@@H](Cc1ccccc1)C(=O)NCC(=O)O [Compound 52, Arg-Tyr-D-Ala-Phe-Gly-OH] (H-RY[dA]FG-OH; N-terminus assumed)",–,–,–,5.50 ± 0.07,–,–,–,–,–,–,–,–,pEC50 ([1]; read-out: Median EC50): 5.52
"C[C@@H](NC(=O)[C@H](Cc1ccccc1)NC(=O)[C@@H](C)NC(=O)[C@H](Cc1ccc(O)cc1)NC(=O)[C@@H](N)CCCNC(=N)N)C(=O)O [Compound 53, H-Arg-Tyr-D-Ala-Phe-D-AlaOH] (H-RY[dA]F[dA]-OH)",–,2.4 ± 0.1 s,2.7 ± 0.1 s,6.06 ± 0.12,6.00,–,–,–,–,–,–,–,–
"CC(C)C[C@H](NC(=O)[C@H](Cc1ccccc1)NC(=O)CNC(=O)[C@@H](C)NC(=O)[C@@H](N)Cc1ccc(O)cc1)C(=O)N[C@@H](CCCNC(=N)N)C(=O)O [Compound 56, H-Tyr-D-Ala-Gly-Phe-Leu-Arg-OH] (H-Y[dA]GFLR-OH)",–,–,–,7.53 ± 0.22,7.30,–,–,–,–,–,–,–,–
COc1cccc(C2(O)CCCCC2CN(C)C)c1 (stereo not drawn) [Tramadol],2.6 ± 0.1 s,–,–,–,–,–,–,–,–,–,–,–,Effect duration (BALB/c male mice; [3]): 2.6 ± 0.1 s
Cyclo-[L-Lys(H-Tyr-D-Ala-Phe-D-Ala-Tyr-Pro-Ser)-L-Glu(L-Trp-NH2)],2.7 ± 0.1 s,2.1 ± 0.1 s,3.9 ± 0.8 s,–,–,3.2 ± 0.3 s,11.6 ± 1.7 s,15.5 ± 1.6 s,15.7 ± 1.2 s,13.0 ± 1.5 s,9.9 ± 1.5 s,6.8 ± 0.5 s,"Initial sensitivity level (mice F1(CBAxC57D16); 20 mg/kg group): 3.0 ± 0.2 s; Effect duration (mice F1(CBAxC57D16); 20 mg/kg i.p., 15 min): 1.4 ± 1.6 s; Effect duration (mice F1(CBAxC57D16); 20 mg/kg i.p., 30 min): 18.1 ± 2.3 s; Effect duration (mice F1(CBAxC57D16); 20 mg/kg i.p., 45 min): 16.8 ± 2.2 s; Effect duration (mice F1(CBAxC57D16); 20 mg/kg i.p., 60 min): 12.7 ± 1.8 s; Effect duration (mice F1(CBAxC57D16); 20 mg/kg i.p., 90 min): 11.7 ± 1.2 s; Effect duration (mice F1(CBAxC57D16); 20 mg/kg i.p., 120 min): 6.3 ± 0.6 s"
Cyclo-[L-Lys(H-Tyr-D-Ala-Phe-D-Ala-Tyr-Pro-Ser)-L-Glu(L-Trp-OH)],2.2 ± 0.1 s,2.1 ± 0.1 s,4.1 ± 0.4 s,–,–,3.7 ± 0.2 s,6.8 ± 0.6 s,6.3 ± 0.7 s,8.4 ± 1.4 s,7.7 ± 1.7 s,6.7 ± 1.0 s,4.6 ± 0.3 s,"Initial sensitivity level (mice F1(CBAxC57D16); 20 mg/kg group): 3.4 ± 0.2 s; Effect duration (mice F1(CBAxC57D16); 20 mg/kg i.p., 15 min): 7.8 ± 0.5 s; Effect duration (mice F1(CBAxC57D16); 20 mg/kg i.p., 30 min): 8.3 ± 0.8 s; Effect duration (mice F1(CBAxC57D16); 20 mg/kg i.p., 45 min): 8.7 ± 1.2 s; Effect duration (mice F1(CBAxC57D16); 20 mg/kg i.p., 60 min): 9.5 ± 1.2 s; Effect duration (mice F1(CBAxC57D16); 20 mg/kg i.p., 90 min): 9.7 ± 1.3 s; Effect duration (mice F1(CBAxC57D16); 20 mg/kg i.p., 120 min): 8.2 ± 1.7 s"
